Data reported in US20230111310A1, “CARBOXYLIC ACID DERIVATIVE-SUBSTITUTED IMINO ARYL COMPOUND, PREPARATION METHOD THEREFOR, HERBICIDAL COMPOSITION AND USE THEREOF” (Qingdao Kingagroot Chemical Compound Co., Ltd., priority 2020, published 2023).

How the values were obtained:
Type in all cases: in vivo
[1] = tested on: Peanut; assay: Pre-emergence stage, crop selectivity; conditions: 30 g/ha, 4 weeks
Protocol: (§1) The activity level criteria for plant damage (i.e., growth control rate) are as follows:
(§2) The aforementioned seeds of monocotyledonous and dicotyledonous weeds and main crops were put into a plastic pot loaded with soil and covered with 0.5-2 cm soil. The test compounds of the present invention was dissolved with acetone, then added with tween 80, diluted by a certain amount of water to reach a certain concentration, and sprayed immediately after sowing. The obtained seeds were incubated for 4 weeks in the greenhouse after spraying and the test results were observed. It was observed that the herbicide mostly had excellent effect at the application rate of 500, 250, 125, 60, 30, 15, 7.5 g/ha, especially to weeds such as Echinochloa crusgalli. Digitaria sanguinalis and Abutilon theophrasti, etc. And many compounds had good selectivity for corn, cotton, wheat, rice, soybean, and peanut etc. In addition, evaluate the weed control effect with the above activity standard level.

[2] = tested on: cotton; assay: Pre-emergence stage, crop selectivity; conditions: 30 g/ha, 4 weeks
Protocol: as §1, §2

[3] = tested on: corn; assay: Pre-emergence stage, crop selectivity; conditions: 30 g/ha, 4 weeks
Protocol: as §1, §2

[4] = tested on: Soybeans; assay: Pre-emergence stage, crop selectivity; conditions: 30 g/ha, 4 weeks
Protocol: as §1, §2

[5] = tested on: Echinochloa crusgalli; assay: Weeding effect in post-emergence stage; conditions: Dose 15 g/ha; level of fresh weight growth control rate
In short: (§3)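 Read-out is growth control rate, counted 3 weeks post-spray and averaged over three repeats. Greenhouse plants at the 2-3 leaf stage received spray-tower application at 500, 250, 125, 60, 30, 15 or 7.5 g/ha, with methyl oleate EC (1.5 liter/ha) and Tween 80 added.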

[6] = tested on: Capsella bursa-pastoris; assay: Weeding effect in pre-emergence stage; conditions: 30 g/ha, 4 weeks
Protocol: as §1, §2

[7] = tested on: Setaria viridis; assay: Weeding effect in pre-emergence stage; conditions: 30 g/ha, 4 weeks
Protocol: as §1, §2

[8] = tested on: Abutilon theophrasti; assay: Weeding effect in pre-emergence stage; conditions: 30 g/ha, 4 weeks
Protocol: as §1, §2

[9] = tested on: Amaranthus retroflexus; assay: Weeding effect in pre-emergence stage; conditions: 30 g/ha, 4 weeks
Protocol: as §1, §2

[10] = tested on: Descurainia sophia; assay: Weeding effect in pre-emergence stage; conditions: 30 g/ha, 4 weeks
Protocol: as §1, §2

[11] = tested on: Veronica didyma Tenore; assay: Weeding effect in pre-emergence stage; conditions: 30 g/ha, 4 weeks
Protocol: as §1, §2

[12] = tested on: Setaria viridis; assay: Weeding effect in post-emergence stage; conditions: Dose 15 g/ha; level of fresh weight growth control rate
In short: as §3

[13] = tested on: Abutilon theophrasti; assay: Weeding effect in post-emergence stage; conditions: Dose 15 g/ha; level of fresh weight growth control rate
In short: as §3

[14] = tested on: Digitaria sanguinalis; assay: Weeding effect in post-emergence stage; conditions: Dose 15 g/ha; level of fresh weight growth control rate
In short: as §3

[15] = tested on: Eleusine indica; assay: Weeding effect in post-emergence stage; conditions: Dose 15 g/ha; level of fresh weight growth control rate
In short: as §3

[16] = tested on: Alopecurus japonicus; assay: Weeding effect in post-emergence stage; conditions: Dose 15 g/ha; level of fresh weight growth control rate
In short: as §3

Row | SMILES | plant damage level Peanut [1] | plant damage level Cotton [2] | plant damage level Corn [3] | plant damage level Soybeans [4] | Weeding effect in post-emergence stage, Echinochloa crusgalli [5] | activity level (growth control rate) Capsella bursa-pastoris [6] | activity level (growth control rate) Setaria viridis [7] | activity level (growth control rate) Abutilon theophrasti [8] | activity level (growth control rate) Amaranthus retroflexus [9] | activity level (growth control rate) Descurainia sophia [10] | activity level (growth control rate) Veronica didyma Tenore [11] | Weeding effect in post-emergence stage, Setaria viridis [12] | Weeding effect in post-emergence stage, Abutilon theophrasti [13] | Weeding effect in post-emergence stage, Digitaria sanguinalis [14] | Weeding effect in post-emergence stage, Eleusine indica [15] | Weeding effect in post-emergence stage, Alopecurus japonicus [16]
1 | CCOC(=O)OC(C)OC(=O)[C@@H](C)O/N=C/c1cc(-n2c(=O)cc(C(F)(F)F)n(C)c2=O)c(F)cc1Cl (stereo partly drawn) [246(R)] | 0 (Level 0: growth control rate is less than 5%) | 0 (Level 0: growth control rate is less than 5%) | 0 (Level 0: growth control rate is less than 5%) | 0 (Level 0: growth control rate is less than 5%) | 5 (Level 5: growth control rate is above 85%) | 5 (Level 5: growth control rate is above 85%) | 5 (Level 5: growth control rate is above 85%) | 5 (Level 5: growth control rate is above 85%) | 5 (Level 5: growth control rate is above 85%) | 5 (Level 5: growth control rate is above 85%) | 5 (Level 5: growth control rate is above 85%) | 5 (Level 5: growth control rate is above 85%) | 5 (Level 5: growth control rate is above 85%) | 5 (Level 5: growth control rate is above 85%) | 5 (Level 5: growth control rate is above 85%) | 5 (Level 5: growth control rate is above 85%)
2 | CC(C)=NOC(=O)[C@@H](C)O/N=C/c1cc(-n2c(=O)cc(C(F)(F)F)n(C)c2=O)c(F)cc1Cl [248(R)] | 0 (Level 0: growth control rate is less than 5%) | 0 (Level 0: growth control rate is less than 5%) | 0 (Level 0: growth control rate is less than 5%) | 0 (Level 0: growth control rate is less than 5%) | 5 (Level 5: growth control rate is above 85%) | 5 (Level 5: growth control rate is above 85%) | 5 (Level 5: growth control rate is above 85%) | 5 (Level 5: growth control rate is above 85%) | 5 (Level 5: growth control rate is above 85%) | 5 (Level 5: growth control rate is above 85%) | 5 (Level 5: growth control rate is above 85%) | 5 (Level 5: growth control rate is above 85%) | 5 (Level 5: growth control rate is above 85%) | 5 (Level 5: growth control rate is above 85%) | 5 (Level 5: growth control rate is above 85%) | 5 (Level 5: growth control rate is above 85%)
3 | CC/C(C)=N/OC(=O)[C@@H](C)O/N=C/c1cc(-n2c(=O)cc(C(F)(F)F)n(C)c2=O)c(F)cc1Cl [249(R)] | 0 (Level 0: growth control rate is less than 5%) | 0 (Level 0: growth control rate is less than 5%) | 0 (Level 0: growth control rate is less than 5%) | 0 (Level 0: growth control rate is less than 5%) | 5 (Level 5: growth control rate is above 85%) | 5 (Level 5: growth control rate is above 85%) | 5 (Level 5: growth control rate is above 85%) | 5 (Level 5: growth control rate is above 85%) | 5 (Level 5: growth control rate is above 85%) | 5 (Level 5: growth control rate is above 85%) | 5 (Level 5: growth control rate is above 85%) | 5 (Level 5: growth control rate is above 85%) | 5 (Level 5: growth control rate is above 85%) | 5 (Level 5: growth control rate is above 85%) | 5 (Level 5: growth control rate is above 85%) | 5 (Level 5: growth control rate is above 85%)
4 | COC/C(C)=N/OC(=O)[C@@H](C)O/N=C/c1cc(-n2c(=O)cc(C(F)(F)F)n(C)c2=O)c(F)cc1Cl [253(R)] | 0 (Level 0: growth control rate is less than 5%) | 0 (Level 0: growth control rate is less than 5%) | 0 (Level 0: growth control rate is less than 5%) | 0 (Level 0: growth control rate is less than 5%) | 5 (Level 5: growth control rate is above 85%) | 5 (Level 5: growth control rate is above 85%) | 5 (Level 5: growth control rate is above 85%) | 5 (Level 5: growth control rate is above 85%) | 5 (Level 5: growth control rate is above 85%) | 5 (Level 5: growth control rate is above 85%) | 5 (Level 5: growth control rate is above 85%) | 5 (Level 5: growth control rate is above 85%) | 5 (Level 5: growth control rate is above 85%) | 5 (Level 5: growth control rate is above 85%) | 5 (Level 5: growth control rate is above 85%) | 5 (Level 5: growth control rate is above 85%)
5 | C[C@@H](O/N=C/c1cc(-n2c(=O)cc(C(F)(F)F)n(C)c2=O)c(F)cc1Cl)C(=O)ON=C1CCCC1 [258(R)] | 0 (Level 0: growth control rate is less than 5%) | 0 (Level 0: growth control rate is less than 5%) | 0 (Level 0: growth control rate is less than 5%) | 0 (Level 0: growth control rate is less than 5%) | 5 (Level 5: growth control rate is above 85%) | 5 (Level 5: growth control rate is above 85%) | 5 (Level 5: growth control rate is above 85%) | 5 (Level 5: growth control rate is above 85%) | 5 (Level 5: growth control rate is above 85%) | 5 (Level 5: growth control rate is above 85%) | 5 (Level 5: growth control rate is above 85%) | 5 (Level 5: growth control rate is above 85%) | 5 (Level 5: growth control rate is above 85%) | 5 (Level 5: growth control rate is above 85%) | 5 (Level 5: growth control rate is above 85%) | 4 (Level 4: growth control rate is greater than or equal to 60% and less than 85%)
6 | C[C@@H](O/N=C/c1cc(-n2c(=O)cc(C(F)(F)F)n(C)c2=O)c(F)cc1Cl)C(=O)OCC1CCCO1 (stereo partly drawn) [264(R)] | 0 (Level 0: growth control rate is less than 5%) | 0 (Level 0: growth control rate is less than 5%) | 0 (Level 0: growth control rate is less than 5%) | 0 (Level 0: growth control rate is less than 5%) | 5 (Level 5: growth control rate is above 85%) | 5 (Level 5: growth control rate is above 85%) | 5 (Level 5: growth control rate is above 85%) | 5 (Level 5: growth control rate is above 85%) | 5 (Level 5: growth control rate is above 85%) | 5 (Level 5: growth control rate is above 85%) | 5 (Level 5: growth control rate is above 85%) | 5 (Level 5: growth control rate is above 85%) | 5 (Level 5: growth control rate is above 85%) | 5 (Level 5: growth control rate is above 85%) | 5 (Level 5: growth control rate is above 85%) | 5 (Level 5: growth control rate is above 85%)
